The values that follow come from patent publication US20100113438A1, “CLASS OF HISTONE DEACETYLASE INHIBITORS” (DAC S.R.L., priority 2006, published 2010).

Molecules are shown by their SMILES.

Data set [1] is described as follows: Metabolic stability in hepatic microsomes (mouse). The data set is classed as in vitro ADME. The note with it: mouse hepatic microsomes 0.5 mg/ml, compound 1 μM, 37° C., pH 7.4, 30 min. The procedure:
(§1) The test compound was dissolved in DMSO at the final concentration of 1 μM and pre-incubated for 10 min at 37° C. in potassium phosphate buffer pH 7.4 together with mouse or human hepatic microsomes (Xenotech) at the final concentration of 0.5 mg/ml.
(§2) After the pre-incubation the reaction was started by adding the cofactor mixture (NADP, G6P, G6P-DH); aliquots were taken at time 0 and 30 min, added to acetonitrile in order to stop the reaction. After centrifugation the supernatant was separated and analyzed by LC-MS/MS.
(§3) A control sample without cofactor was always studied in parallel in order to check the chemical stability of the test compound.
(§4) Two reference compounds of known metabolic stability 7-ethoxycoumarin and propranolol were present each time to access the validity of the experiment.
(§5) A fixed concentration of verapamil was added in each sample as internal standard for the LC-MS/MS analysis.
(§6) The percentage of the compound remaining after 30 min incubation period was calculated according the following equation: [area at time 30 min]/[area at time 0 min]*100%.

Data set [2] can be described thus: Metabolic stability in hepatic microsomes (human). The class given is in vitro ADME. The note with it: human hepatic microsomes 0.5 mg/ml, compound 1 μM, 37° C., pH 7.4, 30 min. The procedure:
as §1, §2, §3, §4, §5, §6

In data set [3] the test system is HDAC (nuclear extract of HeLa cells). In words: Assay of enzyme inhibition of HDAC (BIOMOL Kit). The class given is biochemical. The note with it: substrate 116 μM. The procedure: The in-vitro activity of HDAC inhibitors was assayed by means of a biochemical assay using a BIOMOL Kit, according to the recommended experimental conditions. […] The samples were incubated for 10 minutes at room temperature and then exposed to a developer (15 minutes at room temperature). In this last step a fluorophore was produced, whose fluorescence was measured using an excitation wavelength of 355 nm and an emission at 460 nm.

In the case of `CN1CCN(Cc2ccccc2C(=O)/C=C/c2ccc(/C=C/C(=O)NO)nc2)CC1` [Example 47, (E)-N-Hydroxy-3-(5-{(E)-3-[2-(4-methyl-piperazin-1-ylmethyl)-phenyl]-3-oxo-propenyl}-pyridin-2-yl)-acrylamide], the “Met. mouse (percentage of the compound remaining after 30 min incubation)” value in data set [1] was 52.66%. In data set [2], the “Met. human (percentage of the compound remaining after 30 min incubation)” value is 93.48%.
For the compound `CN1CCN(c2cc(Cl)cc(C(=O)/C=C/c3ccc(/C=C/C(=O)NO)cc3)c2)CC1` [Example 25, (E)-3-(4-{(E)-3-[3-Chloro-5-(4-methyl-piperazin-1-yl)-phenyl]-3-oxo-propenyl}-phenyl)-N-hydroxy-acrylamide], half-maximal inhibition in data set [3] (IC50) was put at 0.035 µM. Moreover, the “Met. mouse (percentage of the compound remaining after 30 min incubation)” value in data set [1] is reported as 84.89%. Moreover, in data set [2], the “Met. human (percentage of the compound remaining after 30 min incubation)” value stood at 57.28%.
Take `CN1CCN(c2ccc(C(=O)/C=C/c3ccc(/C=C/C(=O)NO)cc3)cc2)CC1` [Ref (*) 59, reference compound]: the “Met. mouse (percentage of the compound remaining after 30 min incubation)” value in data set [1] was found to be 9.12%. Further, the “Met. human (percentage of the compound remaining after 30 min incubation)” value in data set [2] was found to be 33.29%.
For the compound `CC(=O)N1CCN(Cc2ccc(C(=O)/C=C/c3ccc(/C=C/C(=O)NO)cc3)cc2)CC1` [Example 30, (E)-3-(4-{(E)-3-[4-(4-Acetyl-piperazin-1-ylmethyl)-phenyl]-3-oxo-propenyl}-phenyl)-N-hydroxy-acrylamide], the IC50 (as a rule, the point on the concentration scale where inhibition reaches its midpoint) in data set [3] turned out to be 0.025 µM.
In data set [3], `CN1CCC(Cc2ccc(C(=O)/C=C/c3ccc(/C=C/C(=O)NO)nc3)cc2)CC1` [Example 44, (E)-N-Hydroxy-3-(5-{(E)-3-[4-(1-methyl-piperidin-4-ylmethyl)-phenyl]-3-oxo-propenyl}-pyridin-2-yl)-acrylamide] yielded an IC50 of 0.0013 µM. Moreover, the “Met. mouse (percentage of the compound remaining after 30 min incubation)” value in data set [1] worked out at 54.56%. The “Met. human (percentage of the compound remaining after 30 min incubation)” value in data set [2] was 34.38%.
Turning to `COc1cc(C(=O)/C=C/c2ccc(/C=C/C(=O)NO)cc2)ccc1CN1CCOCC1` [Ref (*) 48, reference compound], the “Met. mouse (percentage of the compound remaining after 30 min incubation)” value in data set [1] came out at 2.8%. Also, the “Met. human (percentage of the compound remaining after 30 min incubation)” value in data set [2] came to 35.28%.
As to `CC(=O)N1CCN(c2ccc(C(=O)/C=C/c3ccc(/C=C/C(=O)NO)nc3)cc2)CC1` [Example 42, (E)-3-(5-{(E)-3-[4-(4-Acetyl-piperazin-1-yl)-phenyl]-3-oxo-propenyl}-pyridin-2-yl)-N-hydroxy-acrylamide], the half-maximal inhibitory concentration (IC50) in data set [3] was found to be 0.0048 µM. For the same compound, in data set [1], the “Met. mouse (percentage of the compound remaining after 30 min incubation)” value is reported as 50.47%. For the same compound, in data set [2], the “Met. human (percentage of the compound remaining after 30 min incubation)” value was determined as 35.27%.
`CN1CCN(Cc2ccc(C(=O)/C=C/c3ccc(/C=C/C(=O)NO)cc3)cc2)CC1` [Example 7, (E)-N-Hydroxy-3-(4-{(E)-3-[4-(4-methyl-piperazin-1-yl-methyl)-phenyl]-3-oxo-propenyl}-phenyl)-acrylamide]: the “Met. mouse (percentage of the compound remaining after 30 min incubation)” value in data set [1] was determined as 16.75%. Further, the “Met. human (percentage of the compound remaining after 30 min incubation)” value in data set [2] stood at 61.16%.
For `O=C(/C=C/c1ccc(/C=C/C(=O)c2ccc(N3CCNCC3)cc2)cc1)NO` [Example 15, (E)-N-Hydroxy-3-{4-[(E)-3-(4-piperazin-1-yl-phenyl)-3-oxo-propenyl]-phenyl}-acrylamide], in that order: 30.5% and 42.58%.
`O=C(/C=C/c1ccc(/C=C/C(=O)c2ccc(N3CCNCC3)cc2)cn1)NO` [Example 45, (E)-N-Hydroxy-3-{5-[(E)-3-oxo-3-(4-piperazin-1-yl-phenyl)-propenyl]-pyridin-2-yl}-acrylamide] returned a 50% inhibitory concentration (IC50) in data set [3] of 0.0007 µM. The “Met. mouse (percentage of the compound remaining after 30 min incubation)” value in data set [1] was determined as 43.41%. The “Met. human (percentage of the compound remaining after 30 min incubation)” value in data set [2] is reported as 53.65%.
Compound `C[C@@H]1CN(c2ccc(C(=O)/C=C/c3ccc(/C=C/C(=O)NO)nc3)cc2)C[C@H](C)N1C` [Example 39, (E)-N-Hydroxy-3-(5-{(E)-3-oxo-3-[4-((3R,5S)-3,4,5-trimethyl-piperazin-1-yl)-phenyl]-propenyl}-pyridin-2-yl)-acrylamide] returned a half-maximal inhibitory concentration (IC50) in data set [3] of 0.0061 µM. The “Met. mouse (percentage of the compound remaining after 30 min incubation)” value in data set [1] worked out at 20.29%. The “Met. human (percentage of the compound remaining after 30 min incubation)” value in data set [2] is given as 44.35%.
For `C[C@@H]1CN(c2cccc(C(=O)/C=C/c3ccc(/C=C/C(=O)NO)nc3)c2)C[C@H](C)N1C` [Example 43, (E)-N-Hydroxy-3-(5-{(E)-3-oxo-3-[3-((3R,5S)-3,4,5-trimethyl-piperazin-1-yl)-phenyl]-propenyl}-pyridin-2-yl)-acrylamide], in that order: 0.004 µM, 42.45% and 37.29%.
In the case of `CN(C)C1CCN(c2ccc(C(=O)/C=C/c3ccc(/C=C/C(=O)NO)cc3)cc2)CC1` [Example 4, (E)-3-(4-{(E)-3-[4-(4-Dimethylamino-piperidin-1-yl)-phenyl]-3-oxo-propenyl}-phenyl)-N-hydroxy-acrylamide], the “Met. mouse (percentage of the compound remaining after 30 min incubation)” value in data set [1] worked out at 14.00%. In addition, in data set [2], the “Met. human (percentage of the compound remaining after 30 min incubation)” value was determined as 41.88%.
With `O=C(/C=C/c1ccc(/C=C/C(=O)c2ccc(CN3CCNCC3)cc2)cc1)NO` [Example 26, (E)-N-Hydroxy-3-{4-[(E)-3-oxo-3-(4-piperazin-1-ylmethyl-phenyl)-propenyl]-phenyl}-acrylamide], in data set [1], the “Met. mouse (percentage of the compound remaining after 30 min incubation)” value stood at 42.41%. Also, the “Met. human (percentage of the compound remaining after 30 min incubation)” value in data set [2] was 50.84%.
On to `O=C(/C=C/c1ccc(/C=C/C(=O)c2ccc(N3CCOCC3)cc2)c(F)c1)NO` [Ref (*) 29, reference compound], for which, in data set [3], the IC50 was 0.283 µM. Besides, the “Met. mouse (percentage of the compound remaining after 30 min incubation)” value in data set [1] was 11.17%. Further, the “Met. human (percentage of the compound remaining after 30 min incubation)” value in data set [2] amounted to 20.86%.
Taken in the same sequence, the figures for `O=C(/C=C/c1ccc(/C=C/C(=O)c2ccc(N3CCOCC3)cc2)cc1)NO` [Ref (*) 41, reference compound] were 0.238 µM, 2.76% and 8.66%.
Taken in the same sequence, the figures for `O=C(/C=C/c1ccc(/C=C/C(=O)c2cccs2)cn1)NO` [Ref (*) 71, reference compound] were 0.0675 µM, 6.04% and 21.82%.
For `O=C(/C=C/c1ccc(/C=C/C(=O)c2ccc(F)c(F)c2)cn1)NO` [Ref (*) 72, reference compound], in that order: 0.02 µM, 10.83% and 15.32%.
Consider `CN1CCN(c2ccccc2C(=O)/C=C/c2ccc(/C=C/C(=O)NO)cc2)CC1` [Example 1, (E)-N-Hydroxy-3-(4-{(E)-3-[2-(4-methyl-piperazin-1-yl)-phenyl]-3-oxo-propenyl}-phenyl)-acrylamide], for which the “Met. mouse (percentage of the compound remaining after 30 min incubation)” value in data set [1] was 33.81%. The “Met. human (percentage of the compound remaining after 30 min incubation)” value in data set [2] is recorded as 38.16%.
For `O=C(/C=C/c1ccc(/C=C/C(=O)c2ccccc2)cn1)NO` [Ref (*) 69, reference compound], in that order: 5.65% and 13.74%.
